Assay results: patent publication US20210205271A1 (The Johns Hopkins University, priority 2018, published 2021)
Read-outs that look alike come from different tables or passages of the source.

What was measured:
[1] = rats; cited from earlier work
[2] = dog, in vivo, iv, 0.3 mg/kg
[3] = mouse, in vivo, iv, 1.5 mg/kg
Protocol: (§1) All pharmacokinetic studies in mice were conducted according to protocols approved by the Animal Care and Use Committee at Johns Hopkins University. Male CD-1 mice between 25 and 30 g were obtained from Harlan, and maintained on a 12-h light-dark cycle with ad libitum access to food and water. […] The mice were sacrificed at specified time points post drug administration. For collection of plasma and brain tissue, animals were euthanized with CO2, and blood samples were collected in heparinized microtubes by cardiac puncture. Tissues were dissected and immediately flash frozen (−80° C.). Blood samples were spun at 2,000×g for 15 min, plasma was removed and stored at −80° C. until LC/MS analysis. Prior to extraction, frozen samples were thawed on ice. The calibration curves were developed using plasma and brain from naïve animals as a matrix. Plasma samples (50 μL), were processed using a single liquid extraction method by addition of 3004 of acetonitrile as with internal standard (losartan: 0.5 μM), followed by vortex mixing for 30 sec and then centrifugation at 10,000×g for 10 min at 4° C. For brain tissue, homogenized samples were vortex mixed and centrifuged as above. A 104 aliquot of supernatant was diluted with 35 µL of acetonitrile and mixed with 50 μL water containing 0.5 μM losartan as internal standard. Extracts were centrifuged at 10,000×g for 10 min at 4° C. Supernatants were transferred to 2504 polypropylene autosampler vials sealed with a Teflon cap. A volume of 34 was injected onto the ultra-performance liquid chromatography (UPLC) instrument for quantitative analysis by LC-MS/MS.

[4] = MBZ plasma exposure in male beagle dogs after oral administration; type: in vivo, dog; conditions: PO […] MBZ equivalent
[5] = mouse, in vivo, po, 30 mg/kg
Protocol: Brain concentrations of MBZ were also measured in tandem.
as §1

Row | Compound | fold improvement in plasma exposure versus equimolar oral MBZ [1] | AUC0-t [2] | Vd [2] | AUC0-t [3] | Cmax [3] | Tmax [3] | Vd [3] | time of Cmax post-dose [3] | % F (oral bioavailability of MBZ) [4] | Tmax (MBZ, plasma) [4] | AUC0-t (MBZ, brain) [5] | AUC0-t (MBZ, plasma) [5]
1 | COC(=O)NC(=S)Nc1cc(C(=O)c2ccccc2)ccc1N [4-amino-3-(3′-methoxycarbonyl-2′-thioureido)benzophonone] | 2 fold | – | – | – | – | – | – | – | – | – | – | –
2 | Mebendazole [MBZ-C] | – | 0.9 µM·h | 1.3 L/kg | 2.7 µM·h | 5.3 µM | 4.98 min | 1.4 L/kg | 5 min | 11% | 2 h | 13.1 ± 4.2 nmol·h/g | 12.9 µM·h
